Columns and labels:
Assay type in all cases: cell-based
[1] = target: Ba/F3 EGFR-D770-N771ins_SVD (Homo sapiens, UniProt P00533, DUP768-770, cells depend on it); experiment: Cell proliferation assay (CellTiter-Glo), Ba/F3 EGFR-D770-N771ins_SVD cells; conditions: 72 hrs, CTG assay, * = average of multiple measurements, read-out: Ba/F3 EGFR-D770-N771ins_SVD (nM), IC50 of cell proliferation
Method in brief: (§1)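 Cells seeded overnight, then treated in triplicate with 9 concentrations (3.16-fold dilutions; 0.1% DMSO final) for 72 h at 37 °C, 5% CO2. Viability by CellTiter-Glo luminescence, normalised to cell and medium controls; IC50 (nM) from nonlinear sigmoidal fit.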

[2] = target: Ba/F3 EGFR-V769_D770insASV (Homo sapiens, UniProt P00533, DUP767-769, cells depend on it); experiment: Cell proliferation assay (CellTiter-Glo), Ba/F3 EGFR-V769_D770insASV cells; conditions: 72 hrs, CTG assay, * = average of multiple measurements, read-out: Ba/F3 EGFR-V769_D770insASV (nM), IC50 of cell proliferation
Sequence of Ba/F3 EGFR-V769_D770insASV (P00533 with tags, fused parts or gaps DUP767-769): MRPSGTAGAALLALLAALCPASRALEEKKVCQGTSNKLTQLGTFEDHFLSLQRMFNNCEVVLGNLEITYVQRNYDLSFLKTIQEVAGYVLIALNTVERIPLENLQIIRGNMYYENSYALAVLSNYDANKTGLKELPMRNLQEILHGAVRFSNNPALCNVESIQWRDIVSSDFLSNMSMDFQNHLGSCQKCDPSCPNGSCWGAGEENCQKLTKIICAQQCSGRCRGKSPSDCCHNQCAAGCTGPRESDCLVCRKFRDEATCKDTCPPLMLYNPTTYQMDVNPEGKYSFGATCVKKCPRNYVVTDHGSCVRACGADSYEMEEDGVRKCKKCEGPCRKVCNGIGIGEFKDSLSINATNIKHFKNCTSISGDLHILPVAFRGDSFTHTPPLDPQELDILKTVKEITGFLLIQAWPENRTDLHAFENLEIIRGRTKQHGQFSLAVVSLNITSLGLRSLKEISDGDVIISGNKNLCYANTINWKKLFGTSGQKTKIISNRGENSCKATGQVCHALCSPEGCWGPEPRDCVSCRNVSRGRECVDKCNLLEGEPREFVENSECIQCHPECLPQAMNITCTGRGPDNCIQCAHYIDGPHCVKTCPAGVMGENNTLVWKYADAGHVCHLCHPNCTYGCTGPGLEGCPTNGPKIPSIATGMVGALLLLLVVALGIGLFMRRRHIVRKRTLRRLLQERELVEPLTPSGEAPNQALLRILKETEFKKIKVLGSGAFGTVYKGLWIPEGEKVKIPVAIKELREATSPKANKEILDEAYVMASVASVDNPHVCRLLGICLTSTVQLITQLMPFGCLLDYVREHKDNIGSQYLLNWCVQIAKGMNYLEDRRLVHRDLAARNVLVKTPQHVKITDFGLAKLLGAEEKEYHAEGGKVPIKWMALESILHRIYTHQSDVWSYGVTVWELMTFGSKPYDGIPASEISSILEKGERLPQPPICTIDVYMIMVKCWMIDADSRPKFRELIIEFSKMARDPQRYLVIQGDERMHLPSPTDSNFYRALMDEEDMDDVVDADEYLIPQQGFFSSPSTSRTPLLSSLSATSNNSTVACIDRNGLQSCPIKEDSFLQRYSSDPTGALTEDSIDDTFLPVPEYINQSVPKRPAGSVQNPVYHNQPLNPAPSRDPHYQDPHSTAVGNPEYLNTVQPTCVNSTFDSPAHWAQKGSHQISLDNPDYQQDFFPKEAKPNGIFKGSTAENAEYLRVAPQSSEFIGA
Method in brief: as §1

[3] = tested on: A431 (EGFR-WT); experiment: Cell proliferation assay (CellTiter-Glo), A431 cells; conditions: Homo sapiens, A-431, 72 hrs, CTG assay, * = average of multiple measurements
Procedure: I. Cell proliferation assay (i) Reagents and consumables • Fetal bovine serum (FBS) (GBICO, Cat #10099-141); • CellTiter-Glo® Luminescent Cell Viability Assay Kit (Promega, Cat #G7572); • Black transparent flat-bottomed 96-well plate (Corning®, Cat #3603).
• SpectraMax Multi-Label Microplate Detector MD, 2104-0010A; • CO2 incubator, Thermo Scientific 3100 Series; • Biosafety cabinet, Thermo Scientific, 1300 Series type A2; • Inverted microscope, Olympus, CKX41SF; • Siemens refrigerator KK25E76TI. (iii) Cell lines and culture conditions
(iv) Experimental procedures 1. Cell culture and seeding: • (1) Cells in the logarithmic growth phase were harvested, and counted using a platelet counter. Cell viability was detected by the trypan blue exclusion assay to ensure that the cell viability was above 90%. • (2) The cell concentration was adjusted to achieve the final density; and 90 μL of the cell suspension was added to the 96-well plate. • (3) The cells were incubated in the 96-well plate overnight at 37° C. in the presence of 5% CO2 with 95% humidity. 2. TO benchmark data: • (1) 10 μL of PBS was added to each well of the TO flat plate containing the cells. • (2) The CTG reagent was thawed, and the cell plate was equilibrated to room temperature for 30 min. • (3) An equal volume of CTG solution was added to each well. • (4) The cells were shaken for 5 min on an orbital shaker for lysis. • (5) The cell plate was left at room temperature for 20 min to stabilize luminescent signals. • (6) The values of TO luminescent signals were read. 3. Compound dilution and addition • (1) According to the compound information table, a corresponding volume of DMSO was added to the corresponding compound powder to prepare a 10 mM stock solution. • (2) Compound solutions diluted at 1000 fold and 3.16 fold were prepared. • (3) The compound solution diluted at 1000 fold was diluted at 100 fold with PBS, to prepare the compound solutions at 10 fold in 9 concentrations, with the maximum concentration of […]; and the compound solution was diluted at 3.16 fold. 10 μL of medicament solution was added to each well of the seeded 96-well plate. Three replicate wells were provided for each concentration of the compound, and the final concentration of DMSO was 0.1%. • (4) Cells were placed in the 96-well plate containing the medicament and subsequently cultured for 72 hrs at 37° C. in the presence of 5% CO2 with 95% humidity, and then, CTG assay was conducted. 4. Reading of luminescent signals • (1) The CTG reagent was thawed, and the cell plate was equilibrated to room temperature for 30 min. • (2) An equal volume of CTG solution was added to each well. • (3) The cells were shaken for 5 min on an orbital shaker for lysis.
(4) The cell plate was left at room temperature for 20 min to stabilize the luminescent signals. • (5) Luminescent values were read. Data processing
The data were analyzed using software GraphPad Prism 7.0, and fitted by the nonlinear S-curve regression to obtain a dose-effect curve, based on which the IC50 value (unit: nM) was calculated, with the specific test results shown in Table 1.
Cell viability (%)=(Lum test medicament-Lum culture medium control)/(Lum cell control-Lum culture medium control)×100%.

Sequence of Ba/F3 EGFR-D770-N771ins_SVD (P00533 with tags, fused parts or gaps DUP768-770): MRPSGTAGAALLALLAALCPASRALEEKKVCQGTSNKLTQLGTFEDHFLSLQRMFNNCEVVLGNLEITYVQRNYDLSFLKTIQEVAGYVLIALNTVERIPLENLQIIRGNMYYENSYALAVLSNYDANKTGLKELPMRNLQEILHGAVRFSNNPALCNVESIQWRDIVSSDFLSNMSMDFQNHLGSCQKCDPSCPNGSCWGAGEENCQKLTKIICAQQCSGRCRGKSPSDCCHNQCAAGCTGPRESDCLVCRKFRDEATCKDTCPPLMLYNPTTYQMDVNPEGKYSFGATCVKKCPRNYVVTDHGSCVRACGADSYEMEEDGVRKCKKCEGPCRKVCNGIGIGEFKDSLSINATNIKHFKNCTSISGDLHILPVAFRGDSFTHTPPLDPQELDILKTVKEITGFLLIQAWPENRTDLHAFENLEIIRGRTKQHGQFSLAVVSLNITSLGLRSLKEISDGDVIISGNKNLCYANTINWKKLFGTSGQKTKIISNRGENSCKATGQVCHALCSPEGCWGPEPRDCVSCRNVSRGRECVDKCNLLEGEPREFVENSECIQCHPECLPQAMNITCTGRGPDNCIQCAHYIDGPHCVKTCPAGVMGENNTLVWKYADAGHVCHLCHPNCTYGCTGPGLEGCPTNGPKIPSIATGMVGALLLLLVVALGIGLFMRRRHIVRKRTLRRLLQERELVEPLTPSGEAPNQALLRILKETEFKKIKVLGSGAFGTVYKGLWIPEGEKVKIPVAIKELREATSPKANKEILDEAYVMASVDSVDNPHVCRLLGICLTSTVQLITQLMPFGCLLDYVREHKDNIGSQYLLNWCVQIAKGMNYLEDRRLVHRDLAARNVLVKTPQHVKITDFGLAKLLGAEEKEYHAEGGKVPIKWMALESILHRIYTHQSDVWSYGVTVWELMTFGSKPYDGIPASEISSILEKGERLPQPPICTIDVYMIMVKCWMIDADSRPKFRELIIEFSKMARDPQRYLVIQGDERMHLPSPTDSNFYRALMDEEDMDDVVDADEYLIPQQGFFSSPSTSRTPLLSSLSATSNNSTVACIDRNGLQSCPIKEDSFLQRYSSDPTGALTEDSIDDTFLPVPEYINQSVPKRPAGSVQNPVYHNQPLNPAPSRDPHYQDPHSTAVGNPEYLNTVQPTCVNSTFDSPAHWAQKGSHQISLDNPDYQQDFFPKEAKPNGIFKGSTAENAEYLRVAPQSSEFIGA

SMILES | GI50 [1] | GI50 [2] | IC50 [3]
C=CC(=O)Nc1cc(Nc2cc(N3CC(C)(C)c4nc(C)ccc43)ncn2)c(OC)cc1N(C)CCN(C)C [Example 11, N-(2-((2-(dimethylamino)ethyl) (methyl)amino)-4-methoxy-5-((6-(3,3,5-trimethyl-2,3-dihydro-1H-pyrrolo[3,2-b]pyridin-1-yl)pyrimidin-4-yl)amino)phenyl)acrylamide] | 40.4 nM | 73.9 nM | 293 nM
C=CC(=O)Nc1cc(Nc2nccc(N3CC4(CCCC4)c4nc(C)ccc43)n2)c(OC(F)F)cc1N(C)CCN(C)C [Example 39, N-(4-(difluoromethoxy)-2-((2-(dimethylamino)ethyl)(methyl)amino)-5-((4-(5′-methylspiro[cyclo-pentane-1,3′-pyrrolo[3,2-b]pyridin]-1′(2′H)-yl)pyrimidin-2-yl)amino)phenyl)acrylamide] | 24.9 nM | 35.8 nM | 396 nM
C=CC(=O)Nc1cc(Nc2nccc(N3CC(C)(C)c4nc(C)ccc43)n2)c(OC(F)F)cc1N(C)CCN(C)C [Example 47, N-(4-(difluoromethoxy)-2-((2-(dimethylamino)ethyl)(methyl)amino)-5-((4-(3,3,5-trimethyl-2,3-dihydro-1H-pyrrolo[3,2-b]pyridin-1-yl)pyrimidin-2-yl)amino)phenyl) acrylamide] | 12.9 nM | 5.6 nM | 378 nM
C=CC(=O)Nc1cc(Nc2ncnc(N3CC(C)(C)c4nc(C)c(C)cc43)n2)c(OCC)cc1N(C)CCN(C)C [Example 30, N-(2-((2-(dimethylamino)ethyl) (methyl)amino)-4-ethoxy-5-((4-(3,3,5,6-tetramethyl-2,3-dihydro-1H-pyrrolo[3,2-b]pyridin-1-yl)-1,3,5-triazin-2-yl)amino)phenyl)acrylamide] | 38.1 nM | 65.3 nM | 42.2 nM
C=CC(=O)Nc1cc(Nc2ncnc(N3CC4(CCCCC4)c4nc(C)ccc43)n2)c(OC)cc1N(C)CCN(C)C [Example 31, N-(2-((2-(dimethylamino)ethyl) (methyl)amino)-4-methoxy-5-((4-(5′-methylspiro[cyclohexane-1,3′-pyrrolo[3,2-b]pyridin]-1′(2′H)-yl)-1,3,5-triazin-2-yl)amino)phenyl)acrylamide] | 13 nM | 33 nM | 11.1 nM
C=CC(=O)Nc1cc(Nc2nccc(N3CC4(CCCCC4)c4nc(C)ccc43)n2)c(OCC(F)(F)F)nc1N(C)CCN(C)C [Example 42, N-(2-((2-(dimethylamino)ethyl) (methyl)amino)-5-((4-(5′-methyl-spiro[cyclohexane-1,3′-pyrrolo[3,2-b]pyridin]-1′(2′H)-yl)pyrimidin-2-yl)amino)-6-(2,2,2-trifluoroethoxy)pyridin-3-yl)acrylamide] | 11.6 nM | 23.5 nM | 488 nM
C=CC(=O)Nc1cc(Nc2cc(N3CC(C)(C)c4nc(C)c(C)cc43)ncn2)c(OC)cc1N(C)CCN(C)C [Example 28, N-(2-((2-(dimethylamino)ethyl) (methyl)amino)-4-methoxy-5-((6-(3,3,5,6-tetramethyl-2,3-dihydro-1H-pyrrolo[3,2-b]pyridin-1-yl)pyrimidin-4-yl)amino)phenyl)acrylamide] | 28.9 nM | 37.1 nM | 26.3 nM

Continued, values first:

GI50 [1] | GI50 [2] | IC50 [3] | SMILES
12.5 nM | 17.9 nM | 71.8 nM | C=CC(=O)Nc1cc(Nc2ncnc(N3CC(C)(C)c4nc(C)ccc43)n2)c(OC)cc1N(C)CCN(C)C [Example 8, N-(2-((2-(dimethylamino)ethyl) (methyl)amino)-4-methoxy-5-((4-(3,3,5-trimethyl-2,3-dihydro-1H-pyrrolo[3,2-b]pyridin-1-yl)-1,3,5-triazin-2-yl)amino)phenyl)acrylamide]
14.8 nM | 26.3 nM | 96.9 nM | C=CC(=O)Nc1cc(Nc2nccc(N3CC4(CCC4)c4nc(C)ccc43)n2)c(OC)nc1N(C)CCN(C)C [Example 53, N-(2-((2-(dimethylamino)ethyl) (methyl)amino)-6-methoxy-5-((4-(5′-methylspiro[cyclobutane-1,3′-pyrrolo[3,2-b]pyridin]-1′(2′H)-yl)pyrimidin-2-yl)amino)pyridin-3-yl) acrylamide]
17.8 nM | 30.6 nM | 72.9 nM | C#Cc1ccc2c(n1)C(C)(C)CN2c1ccnc(Nc2cc(NC(=O)C=C)c(N(C)CCN(C)C)cc2OC)n1 [Example 54, N-(2-((2-(dimethylamino)ethyl)(methyl)amino)-5-((4-(5-ethynyl-3,3-dimethyl-2,3-dihydro-1H-pyrrolo[3,2-b]pyridin-1-yl)pyrimidin-2-yl)amino)-4-methoxyphenyl)acrylamide]
34.5 nM | 110 nM | 747 nM | C=CC(=O)Nc1cc(Nc2nccc(N3CC(C)(C)c4nc(-n5cnc(C)c5)ccc43)n2)c(OC)cc1N(C)CCN(C)C [Example 60, N-(5-((4-(3,3-dimethyl-5-(4-methyl-1H-imidazole-1-yl)-2,3-dihydro-1H-pyrrolo[3,2-b]pyridin-1-yl)pyrimidin-2-yl)amino)-2-((2-(dimethylamino)ethyl)(methyl)amino)-4-methoxyphenyl)acrylamide]
35.3 nM | 70.8 nM | 89.9 nM | C=CC(=O)Nc1cc(Nc2cc(N3CC(C)(C)c4ncccc43)ncn2)c(OC)cc1N1CCC[C@@H]1CN(C)C [Example 12, (R)-N-(5-((6-(3,3-dimethyl-2,3-dihydro-1H-pyrrolo[3,2-b]pyridin-1-yl)pyrimidin-4-yl)amino)-2-(2-((dimethylamino)methyl)pyrrolidin-1-yl)-4-methoxyphenyl)acrylamide]
34.8 nM | 123 nM | 620 nM | C=CC(=O)Nc1cc(Nc2nccc(N3CC(C)(C)c4nc(-n5ccnc5)ccc43)n2)c(OC)cc1N(C)CCN(C)C [Example 51, N-(5-((4-(5-(1H-imidazole-1-yl)-3,3-dimethyl-2,3-dihydro-1H-pyrrolo[3,2-b]pyridin-1-yl)pyrimidin-2-yl)amino)-2-((2-(dimethylamino)ethyl)(methyl)amino)-4-methoxyphenyl)acrylamide]
2.9 nM | 14 nM | 15.2 nM | C=CC(=O)Nc1cc(Nc2ncnc(N3CC(C)(C)c4nc(C)c(C)cc43)n2)c(OC)cc1N(C)CCN(C)C [Example 20, N-(2-((2-(dimethylamino)ethyl) (methyl)amino)-4-methoxy-5-((4-(3,3,5,6-tetramethyl-2,3-dihydro-1H-pyrrolo[3,2-b]pyridin-1-yl)-1,3,5-triazin-2-yl)amino)phenyl)acrylamide]
20.1 nM | 35 nM | 108 nM | C=CC(=O)Nc1cc(Nc2ncnc(N3CC(C)(C)c4nc(C)c(C)cc43)n2)c(OC(C)C)cc1N(C)CCN(C)C [Example 44, N-(2-((2-(dimethylamino)ethyl) (methyl)amino)-4-isopropoxy-5-((4-(3,3,5,6-tetramethyl-2,3-dihydro-1H-pyrrolo[3,2-b]pyridin-1-yl)-1,3,5-triazin-2-yl)amino)phenyl)acrylamide]
39.6 nM | 116 nM | 532 nM | C=CC(=O)Nc1cc(Nc2nccc(N3CC4(CCC4)c4ncccc43)n2)c(OC)cc1N(C)CCN(C)C [Example 63, N-(2-((2-(dimethylamino)ethyl) (methyl)amino)-4-methoxy-5-((4-(spiro[cyclobutane-1,3′-pyrrolo [3,2-b]pyridin]-1′(2′H)-yl)pyrimidin-2-yl)amino)phenyl)acrylamide]

Source: US20240109885A1, “2,3-DIHYDRO-1H-PYRROLO[3,2-B]PYRIDINE DERIVATIVE, PREPARATION METHOD THEREFOR, AND APPLICATION THEREOF” (Abbisko Therapeutics Co., Ltd, priority 2020, published 2024)
